According to patent US5504097A, “N-hydroxyureas as 5-lipoxygenase inhibitors and inhibitors of oxidative modification of low density lipoprotein” (American Home Products Corporation, priority 1995, dated 1996):

Legend:
[1] = tested on: LT-dependent bronchoconstriction; assay: Inhibition of Bronchoconstriction in Guinea Pigs Induced by Exogenously Administered Antigen (ovalbumin); format: in vivo, Male guinea pigs; conditions: Cavia porcellus, 5 min; for inhibition in vivo at 10 mg/kg: iv
Procedure: 4. Inhibition of Brochoconstriction in Guinea Pigs Induced by Exogenously Administered Antigen
Male guinea pigs (Charles River, Wilmington, Mass.) were sensitized 3-4 weeks prior to antigen challenge by administration of 2 i.m. injections of ovalbumin, 1 into each hind limb (35 mg total). Sensitized animals (500-600 g) were fasted overnight prior to experimentation. Conscious animals were then dosed p.o. with drug or vehicle alone (0.5% Tween 80 in H2 O) at the indicated times prior to antigen challenge, or anesthetized animals were dosed i.v. with drug or vehicle alone (DMSO) 5 min prior to antigen challenge. Animals were anesthetized by urethane (2.8 g/kg i.p.). A carotid artery and jugular vein were cannulated to allow for the monitoring of blood pressure and the administration of drugs, respectively. The trachea was then cannulated and connected to a Harvard Apparatus rodent ventilator (S. Natick, Mass). Spontaneous respiration was abolished by the administration of succinylcholine (2.5 mg/kg i.v.). The animals were then ventilated with room air at a rate of 65 breaths per min. Airway inflation pressure was measured using a Statham pressure transducer (Gould Instruments, Cleveland, Ohio) connected to the tracheal cannula via a side-arm and recorded on a Grass Instruments recorder (Quincy, Mass). The tidal volume (approximately 10 cc/kg) was adjusted to give a baseline inflation pressure of 8-10 cm H2 O at end inspiration. Animals were then allowed 20 min to stabilize.
Following the stabilization period, animals were given i.v. injections of pyrilamine (5 mg/kg), propranolol (0.1 mg/kg) and indomethacin (10 mg/kg) at 15, 10 and 5 min, respectively, prior to antigen challenge. This pretreatment results in an LT-dependent bronchoconstriction following antigen challenge, which was accomplished by i.v. administration of ovalbumin (10 mg/kg). Only one bronchoconstriction per animal was induced. End-inspiratory inflation pressure (in cm H2 O over baseline) was measured at 5 min post-antigen challenge. A mean value and standard error for the % inhibition of control bronchoconstriction in each drug-treated group was then calculated.

[2] = target: T1, 5-Lipoxygenase (Homo sapiens, UniProt P09917); assay: Inhibition of 5-Lipoxygenase in Human Whole Blood (LTB4, calcium ionophore A23187); format: cell-based; conditions: 1 μM
T1 construct: from tissue; host or cells: whole blood of male human donors (endogenous enzyme of the leukocytes)
T1 sequence (P09917 1-674): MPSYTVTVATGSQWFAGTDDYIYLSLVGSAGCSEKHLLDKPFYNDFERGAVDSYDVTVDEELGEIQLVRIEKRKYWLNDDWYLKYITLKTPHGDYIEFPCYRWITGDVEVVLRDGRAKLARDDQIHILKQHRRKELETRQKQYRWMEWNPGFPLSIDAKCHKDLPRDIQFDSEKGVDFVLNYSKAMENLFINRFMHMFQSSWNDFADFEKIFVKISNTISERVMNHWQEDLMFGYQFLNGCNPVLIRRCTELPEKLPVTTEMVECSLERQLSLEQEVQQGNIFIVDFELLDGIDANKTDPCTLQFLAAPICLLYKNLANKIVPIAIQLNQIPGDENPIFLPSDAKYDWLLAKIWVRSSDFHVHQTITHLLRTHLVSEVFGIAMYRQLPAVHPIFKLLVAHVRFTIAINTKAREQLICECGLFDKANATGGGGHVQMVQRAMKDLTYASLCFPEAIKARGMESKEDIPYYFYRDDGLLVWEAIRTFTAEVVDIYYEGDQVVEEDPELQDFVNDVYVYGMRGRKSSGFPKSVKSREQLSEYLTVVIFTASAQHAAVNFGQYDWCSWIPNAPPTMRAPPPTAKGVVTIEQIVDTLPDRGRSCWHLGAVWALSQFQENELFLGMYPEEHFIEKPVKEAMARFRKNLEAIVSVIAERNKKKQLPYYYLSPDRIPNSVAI
Procedure: 1. Inhibition of 5-Lipoxygenase in Human Whole Blood
Blood is obtained in 50-100 ml quantities from male donors. White blood cell counts and differentials are made. Two ml of blood are placed in a 15 ml polypropylene test tube. Test compounds are solubilized in dimethylsulfoxide and diluted in 1:10 in 10% bovine serum albumin in phosphate buffered saline, pH 7.4 resulting in a final dimethylsulfoxide concentration of 0.1% in the blood. Then, solutions of test compounds are added to the blood in a shaking water bath at 37° C. for 10 minutes prior to the addition of 30 μM calcium ionophore (A23187, Sigma). After ionophore administration, whole blood samples are mixed and incubated for 20 minutes at 37° C. in a shaking water bath. Incubation is terminated by placing samples in an ice bath and immediately adding ethylene glycol-bis-(β-aminoethyl ether)-N, N,N',N'-tetraacetic acid (10 mM). Samples are mixed and centrifuged at 1200× g for 15 minutes at 4° C. Preparation of samples for evaluation by RIA or ELISA is carried out by the following protocol. Plasma is removed from sample tubes, placed in 15 ml polypropylene test tubes containing 8 ml methanol, and then vortexed to precipitate protein. Samples are stored at -70° C. overnight. The next day, samples are centrifuged at 200× g for 15 minutes at 4° C. to pellet the precipitate. Samples are dried in a Savant SpeedVac Concentrator, Model SVC 200H, reconstituted to original volume with ice cold RIA or ELISA buffer, and stored at -70° C. until assayed. The assay for eicosanoids (LTB4, T×B2, and PGE2) is performed as described by the manufacturer of the ^3 H!-RIA kit or ELISA kit (LTB4 -Amersham, T×B2 and PGE2 -Caymen Chemical).
The total eicosanoid level in 2 ml of blood is calculated and reported as ng/10^6 neutrophils. Significance is determined by a one-way analysis of variance with least significant difference (LSD) comparisons to control (p≤0.05) and IC50 's (μM) are determined by regression analysis (Finney, 1978). Drug effects are expressed as percent change from control values.

SMILES | inhibition in vivo at 10 mg/kg [1] [%] | inhibition at 1 µM [2] [%] | inhibition in vivo at 25 mg/kg ([1]; po) [%] | inhibition in vivo at 50 mg/kg ([1]; po, 50 mg/kg) [%]
Cc1oc(-c2ccccc2)nc1COc1ccc(CN(O)C(N)=O)cc1 [Example 1, 1-Hydroxy-1-4-(5-methyl-2-phenyl-oxazol-4-ylmethoxy)-benzyl!-urea] | 38 | 50 | – | –
Cc1oc(-c2ccc(C(F)(F)F)cc2)nc1COc1ccc(CN(O)C(N)=O)cc1 [Example 6, 1-Hydroxy-1-4-5-methyl-2-(4-trifluoromethyl-phenyl)-oxazol-4-ylmethoxy!-benzyl!-urea] | 27 | 34 | 27 | –
NC(=O)N(O)Cc1ccc(OCc2coc(-c3ccccc3)n2)cc1 [Example 9, 1-Hydroxy-1-4-(2-phenyl-oxazol-4-ylmethoxy)-benzyl!-urea] | 54 | 58 | – | 44
NC(=O)N(O)Cc1ccc(OCc2csc(-c3ccccc3)n2)cc1 [Example 10, 1-Hydroxy-1-4-(2-phenyl-thiazol-4-ylmethoxy)-benzyl!-urea] | 50 | 44 | 24 | –
